# Structures can show the parent of a compound that is named as a salt. Where two headings read alike, the source gives them in different places.
# Key:
# C57BL/6JOlaHsd mice [1] = experiment: Ear scratch response (ESR) / grooming, urge-like behavior; assay type: in vivo
# Experimental: 1. CB2 receptor selective ligands or CB2/SERM ligands were injected intraperitoneally or orally at doses of 0.001 to 100 mg/kg one to two hours before the injection of DOI. In order to test the effect of DOI on head twitch responses, ear scratch and grooming responses, DOI was intraperitoneally injected at a dose of 1 mg/kg.
# ESR behavior is a measure for urge-like behavior and often preceded HTRs. The ESR is a rapid scratching movement of the head, neck, ears, or other body surfaces by either hindlimbs. The number of ESRs was manually counted. Every ESR was also counted as a grooming. In some experiments, each ESR was considered as a separate episode if the animal moved. In some experiments, each ESR was considered as a separate episode for every ESR.
# Grooming behavior is a measure for anxiety. Grooming behavior in mice is characterized by licking its fur, groom with the forepaws, or scratch with any limb. Often the mouse will mix all of these grooming behaviors. The number of grooms was manually counted. In some experiments, each grooming behavior was considered as a separate episode if the animal moved its hindlimbs. In some experiments, each grooming behavior was considered as a separate episode for every grooming behavior.
# C57BL/6JOlaHsd mice [2] = assay type: in vivo
# [3] = system: CB2 receptor knockout mice; assay type: in vivo
# mice = conditions: 5 mg/kg during postnatal days 5-13; measured at the age of 12 weeks; cited from earlier work
# C57BL/6JOlaHsd mice [4] = experiment: Marble burying test (MBT), compulsive behavior; assay type: in vivo; conditions: one hour after a single injection, age 6 weeks
# Experimental: Mice were habituated to the test room for 1 h. A mouse was injected with DOI as above and then placed in the experimental cage (white plastic 36×24.5×14.5 cm) filled with 5 cm sawdust for 5 min, in the absence of marbles. The mouse was taken out and twenty black glass were arranged 4 by 5 with 7 cm apart and 1 cm apart from the wells of the cage. Each mouse was tested for its marble burying activity for 30 min. Activity was videotaped with EthoVision and buried marbles were counted manually at the end of the experiment (after 30 min). A marble considered as buried when it was sawdust-covered by two third of its volume.
# Marbles that were moved were also counted.
# With a view to study the effect of the JTE-907 and M1 compositions on repetitive behavior, C57BL/6JOlaHsd mice were intraperitoneally injected at age 6 weeks with a single dose of JTE-907 at 0.2-50 mg/kg, M1 at 0.2-50 mg/kg or equivalent vehicle. The number of buried marbles in the burying marble test by each mouse was recorded.
# Sabra mice = experiment: Ultrasonic vocals after postnatal SR141716A (vocal tic-like behavior); assay type: in vivo
# osteoclastogenesis = conditions: Schuehly et al. 2011; cited from earlier work
# GPR55 = GPR55 (Homo sapiens, UniProt Q9Y2T6); conditions: Schuehly et al. 2011; cited from earlier work
# cyclooxygenase 2 (COX-2) = target: T1, cyclooxygenase 2 (COX-2) (Homo sapiens, UniProt P35354); conditions: Schuehly et al. 2011; cited from earlier work
# T1 sequence (P35354 18-604): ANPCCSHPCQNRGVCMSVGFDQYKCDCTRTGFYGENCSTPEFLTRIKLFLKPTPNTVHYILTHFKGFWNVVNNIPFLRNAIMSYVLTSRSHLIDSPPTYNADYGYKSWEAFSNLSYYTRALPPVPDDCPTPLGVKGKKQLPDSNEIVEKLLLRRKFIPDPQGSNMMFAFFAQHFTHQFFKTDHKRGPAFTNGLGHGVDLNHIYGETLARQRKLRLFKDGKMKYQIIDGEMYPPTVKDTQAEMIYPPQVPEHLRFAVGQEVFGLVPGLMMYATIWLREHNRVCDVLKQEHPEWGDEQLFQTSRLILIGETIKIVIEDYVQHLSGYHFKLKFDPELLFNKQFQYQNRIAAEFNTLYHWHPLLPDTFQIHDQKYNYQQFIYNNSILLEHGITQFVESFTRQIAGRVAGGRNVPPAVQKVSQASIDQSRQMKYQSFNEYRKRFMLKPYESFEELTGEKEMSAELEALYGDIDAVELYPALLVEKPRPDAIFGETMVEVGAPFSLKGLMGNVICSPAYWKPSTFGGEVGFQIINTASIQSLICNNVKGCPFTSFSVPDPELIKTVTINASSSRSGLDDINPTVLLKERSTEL
# [5] = system: Tourette syndrome (TS) patients; conditions: patient reports; cited from earlier work
# [6] = model inducer, 1 mg/kg i.p., age three weeks up to 21 weeks
# [7] = 0.2 mg/kg i.p. single dose, one hour before DOI 1 mg/kg i.p., age 3 weeks
# [8] = 5 mg/kg i.p. single dose, one hour before DOI 1 mg/kg i.p., age 3 weeks
# [9] = 1-20 mg/kg i.p., no DOI, age 6 weeks
# [10] = 10 mg/kg i.p. single dose, one hour before DOI 1 mg/kg i.p., age 3 weeks
# Chain of GPR55 (Q9Y2T6 whole entry, species assumed): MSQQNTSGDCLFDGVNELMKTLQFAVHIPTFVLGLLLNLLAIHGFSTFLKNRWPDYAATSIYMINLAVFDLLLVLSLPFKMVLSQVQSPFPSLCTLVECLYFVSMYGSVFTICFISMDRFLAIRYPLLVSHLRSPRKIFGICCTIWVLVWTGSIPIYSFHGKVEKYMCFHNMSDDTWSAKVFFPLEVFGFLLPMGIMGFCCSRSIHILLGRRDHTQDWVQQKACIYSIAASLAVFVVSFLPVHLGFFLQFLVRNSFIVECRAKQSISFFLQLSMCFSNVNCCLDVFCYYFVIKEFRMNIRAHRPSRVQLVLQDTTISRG
smiles,measurement,setting,value
"COc1cc(CC(C)N)c(OC)cc1I.Cl (single isomer, unassigned; (-)) [DOI, (−)-1-(2,5-dimethoxy-4-iodophenyl)-2-aminopropane hydrochloride]",ear scratch response and grooming behavior,C57BL/6JOlaHsd mice [1]; [6],increased
same,head twitch response,C57BL/6JOlaHsd mice [2]; [6],increased
same,HTR frequency in CB2 receptor knockout mice,"[3]; model inducer, 1 mg/kg i.p., 6 weeks old",increased
"C=C1CC/C=C(\C)CC[C@@H]2[C@@H]1CC2(C)C [BCP, beta-caryophyllene]",DOI-induced repetitive head twitches,C57BL/6JOlaHsd mice [2]; dose not stated,able to reduce
"CCCCCCC(C)(C)c1cc(OC)c([C@@H]2C=C(CO)[C@@H]3C[C@H]2C3(C)C)c(OC)c1 [HU-308, [(1R,2R,5R)-2-[2,6-dimethoxy-4-(2-methyloctan-2-yl)phenyl]-7,7-dimethyl-4-bicyclo[3.1.1]hept-3-enyl] methanol]",DOI-induced HTR frequency,C57BL/6JOlaHsd mice [2]; [7],reduced
same,repetitive behavior (HTR) with the drug alone,"C57BL/6JOlaHsd mice [2]; 0.2 mg/kg i.p., saline instead of DOI, age 3 weeks",significantly increased
same,DOI-induced HTR frequency,C57BL/6JOlaHsd mice [2]; [8],reduced
same,DOI-induced HTR frequency in CB2 receptor knockout mice,"[3]; 5 mg/kg i.p., one hour before DOI 1 mg/kg i.p., male, age 6-21 weeks",significantly reduces
same,motor tics/head twitches in the open field test,mice,induce abnormal motor tics/head twitches
"CCCCCOc1c(OC)ccc2cc(C(=O)NCc3ccc4c(c3)OCO4)c(=O)[nH]c12 [JTE-907, N-(benzo[1,3]dioxol-5-ylmethyl)-7-methoxy-2-oxo-8-pentyloxy-1,2-dihydroquinoline-3-carboxamide]",number of buried marbles,C57BL/6JOlaHsd mice [4]; 5 mg/kg i.p.,reduced
same,DOI-induced HTR frequency,C57BL/6JOlaHsd mice [2]; [7],reduced
same,DOI-induced HTR frequency,C57BL/6JOlaHsd mice [2]; [8],reduced
"C=CCc1ccc(O)c(-c2ccc(OC)c(CC=C)c2)c1 [MH, 2-(4-Methoxy-3-prop-2-enylphenyl)-4-prop-2-enylphenol]",vocal tic-like behavior (number of ultrasonic vocal events),"Sabra mice; SR141716A 5 mg/kg s.c. postnatal day 1-3, drug 5 mg/kg s.c. at age 13 days, one hour before recording",significantly reduces
same,number of buried marbles,C57BL/6JOlaHsd mice [4]; 10 mg/kg i.p.,reduced
same,osteoclastogenesis,osteoclastogenesis,potently inhibits
same,urge-like response induced by the drug alone,C57BL/6JOlaHsd mice [1]; [9],did not induce urge-like response at any dose
same,frequency of DOI-induced ESR behavior (urge-like behavior),"C57BL/6JOlaHsd mice [1]; i.p., one hour before DOI 1 mg/kg i.p., dose not given",reduced
same,GPR55 activity,GPR55,not
same,DOI-induced HTRs,"C57BL/6JOlaHsd mice [2]; 1 mg/kg i.p. single dose, one hour before DOI 1 mg/kg i.p., age 3 weeks",reduced
same,DOI-induced HTRs,"C57BL/6JOlaHsd mice [2]; 1 mg/kg i.p. single dose, one hour before DOI 1 mg/kg i.p., age 6 weeks",reduced
same,DOI-induced HTR frequency,"C57BL/6JOlaHsd mice [2]; 1 mg/kg oral (gavage) in self-emulsifying oral formulation, two hours before DOI 1 mg/kg i.p., age 3 weeks",significantly reduced
same,DOI-induced HTR frequency,C57BL/6JOlaHsd mice [2]; [8],reduced
same,DOI-induced HTRs,"C57BL/6JOlaHsd mice [2]; 5 mg/kg i.p. single dose, one hour before DOI 1 mg/kg i.p., age 6 weeks",reduced
same,DOI-induced HTR frequency,"C57BL/6JOlaHsd mice [2]; 5 mg/kg oral (gavage) in self-emulsifying oral formulation, two hours before DOI 1 mg/kg i.p., age 3 weeks",significantly reduced
same,HTR induced by the drug alone,C57BL/6JOlaHsd mice [2]; [9],did not induce HTR at any dose
same,"effect to reverse DOI-induced HTR, comparison of ages","C57BL/6JOlaHsd mice [2]; i.p., 20 min from DOI injection, age 3 weeks vs 6 weeks",higher at age 3 weeks than 6 weeks
same,"effect on DOI-induced HTR frequency, 1 mg/kg compared with 5 mg/kg","C57BL/6JOlaHsd mice [2]; oral formulation, age 3 weeks",greater
same,COX-2 enzymatic activity,cyclooxygenase 2 (COX-2),inhibits
Cc1c(C(=O)NN2CCCCC2)nn(-c2ccc(Cl)cc2Cl)c1-c1ccc(Cl)cc1 [SR141716A],vocalization of mice pups vs control litter mates,Sabra mice; administered at the age of one to two days,higher level of vocalization and/or higher number of vocals
CCN(CC)CCOc1ccc(C(=C(Cl)c2ccccc2)c2ccccc2)cc1 [clomiphene citrate],DOI-induced HTR frequency,C57BL/6JOlaHsd mice [2]; [10],did not significantly reverse
O=C(c1ccc(OCCN2CCCCC2)cc1)c1c(-c2ccc(O)cc2)sc2cc(O)ccc12 [raloxifene],DOI-induced HTR frequency,C57BL/6JOlaHsd mice [2]; [10],reduced
CCCCCc1cc(O)c2c(c1)OC(C)(C)[C@@H]1CCC(C)=C[C@@H]21 [Δ^9-tetrahydrocannabinol],tic frequency,[5],ameliorate

# Reference: patent publication US10795976B2, “Program randomization for cyber-attack resilient control in programmable logic controllers” (Siemens Aktiengesellschaft, priority 2016, dated 2020)
